Where two headings read alike, the source gives them in different places. Marks after values point to notes of the source that are not given here.
Assays:
[1] = Plasma Stability Assay (Example A3), human plasma; format: in vitro ADME; settings: 10 μM, 37° C.; for Human Plasma Metabolite (%): metabolite (mesembrine, 001) accumulated; for Human Plasma Prodrug (%): prodrug remaining
Excerpt: (§1) The data is represented in the table below.

[2] = format: in vitro ADME, mouse; settings: 5 μM, 37° C.; for Mouse Plasma Metabolite (%): metabolite (mesembrine) accumulated; for Mouse Plasma Prodrug (%): prodrug remaining
Description: (§2) Each test was carried out in duplicate for each time point; 0 min, 15 min, 30 min, 60 min, 120, 240 min. […]

[3] = format: in vitro ADME, human; settings: 5 μM, 37° C.; for Human Plasma Metabolite (%): metabolite (mesembrine) accumulated; for Human Plasma Prodrug (%): prodrug remaining
Description: as §2

in vivo = format: in vivo, mouse; settings: for half-life / C0 / clearance / Vd: iv, 2 mg/kg; for C0: back extrapolated; for Vd: read-out: Vss
Description: Total fifteen male mice were used in this study with n=3 mice/time point with sparse sampling study design. Animals were administered through intravenous route with solution formulation of 321 at 2 mg/kg dose.
The extraction procedure for plasma/brain samples and the spiked plasma/brain calibration standards were identical (PMSF Stabilized Plasma and Brain used for Preparation of calibration standards): A 20 μL of study sample plasma/brain or spiked plasma/brain calibration standard was added to individual pre-labeled micro-centrifuge tubes followed by 200 μL of internal standard prepared in acetonitrile (Rosuvastatin, 50 ng/mL) was added except for blank, where 200 μL of acetonitrile was added. Samples were vortexed for 5 minutes. Samples were centrifuged for 10 minutes at a speed of 4000 rpm at 4° C. Following centrifugation, 200 μL of clear supernatant was transferred in 96 well plates and analyzed using LC-MS/MS.
Brain samples were diluted (1-part of tissue: 2-part of buffer) and homogenized. The homogenate was submitted for bioanalysis and the concentrations (ng/mL) received were corrected with dilution factor (3×) and the final reported concentrations were represented in ng/g.
The plasma and brain concentration-time data of 321 and 001 were used for the pharmacokinetic analysis.
LLOQ: 321: 1.02 ng/mL for plasma and brain 001: 1.01 ng/mL for plasma and brain

[4] = Metabolic Stability in Human Hepatocytes; format: in vitro ADME; settings: cryopreserved human hepatocytes, 37° C.
Description: A 2.5 uL aliquot of 100 μM test compound was incubated with 247.5 uL of cryopreserved hepatocytes suspended in serum-free incubation medium at 5×10^5 viable cells/mL. The mixture was incubated at 37° C. and shaken at 500 rpm for the designated time points (0.5, 15, 30, 60, 90, or 120 min). At each time point, 25 μL aliquot of incubation mixture was transferred to 125 μL of cold acetonitrile containing internal standard, followed by centrifugation for 30 min at 3,220 g. 100 μL of supernatant was mixed with 100 μL of distilled water for analysis by LC-MS/MS. Peak areas were determined from extracted ion chromatograms and in vitro half-life (t1/2) was determined from the concentration vs time regression slope, in vitro t1/2=0.693/k. Conversion of the in vitro t1/2 (in min) into the in vitro intrinsic clearance (in vitro CLint, in μL/min/10^6 cells) is done using: in vitro CLint=kV/N.

[5] = Plasma Stability Assay (Example A3), rat plasma; format: in vitro ADME; settings: 10 μM, 37° C.; for Rat Plasma Metabolite (%): metabolite (mesembrine, 001) accumulated; for Rat Plasma Prodrug (%): prodrug remaining
Excerpt: as §1

[6] = 321 after 321 IV 2 mg/kg, 0.08 h
[7] = 321 after 321 IV 2 mg/kg, 0.25 h
[8] = 321 after 321 IV 2 mg/kg, 0.5 h
[9] = male, C57BL/6, mouse, in vivo, 321 in brain after 321 IV 2 mg/kg
[10] = male, C57BL/6, mouse, in vivo, 321 in plasma after 321 IV 2 mg/kg

Question: With `COc1ccc([C@@]23CCC(OP(=O)(OC(C)C)OC(C)C)=C[C@@H]2N(C)CC3)cc1OC` [Compound 321, [(3aS,7aS)-3a-(3,4-dimethoxyphenyl)-1-methyl-3,4,5,7a-tetrahydro-2H-indol-6-yl]diisopropyl phosphate] as the molecule, how does the “Human Plasma Metabolite (%)” value ([1]; 0 min) read?
Answer: 0.40%

Question: And the “Human Plasma Metabolite (%)” value ([1]; 10 min)?
Answer: 0.50%

Question: What about the “Human Plasma Metabolite (%)” value ([1]; 30 min) of the same molecule?
Answer: 0.57%

Question: And the “Human Plasma Metabolite (%)” value ([1]; 60 min)?
Answer: 0.65%

Question: And the “Human Plasma Metabolite (%)” value ([1]; 120 min)?
Answer: 0.82%

Question: And the “Human Plasma Metabolite (%)” value ([1]; 240 min)?
Answer: 0.96%

Question: And the “Human Plasma Prodrug (%)” value ([1]; 0 min)?
Answer: 100.0%

Question: What about the “Human Plasma Prodrug (%)” value ([1]; 10 min) of the same molecule?
Answer: >99%

Question: And the “Human Plasma Prodrug (%)” value ([1]; 30 min)?
Answer: >99%

Question: What about the “Human Plasma Prodrug (%)” value ([1]; 60 min) of the same molecule?
Answer: 98.1%

Question: What about the “Human Plasma Prodrug (%)” value ([1]; 120 min) of the same molecule?
Answer: 94.5%

Question: What about the “Human Plasma Prodrug (%)” value ([1]; 240 min) of the same molecule?
Answer: 96.3%

Question: And the “Mouse Plasma Metabolite (%)” value ([2]; 0 min)?
Answer: 11.9%

Question: What about the “Mouse Plasma Metabolite (%)” value ([2]; 15 min) of the same molecule?
Answer: 28.4%

Question: What about the “Mouse Plasma Metabolite (%)” value ([2]; 30 min) of the same molecule?
Answer: 38.3%

Question: What about the “Mouse Plasma Metabolite (%)” value ([2]; 60 min) of the same molecule?
Answer: 51.1%

Question: What about the “Mouse Plasma Metabolite (%)” value ([2]; 120 min) of the same molecule?
Answer: 53.7%

Question: What about the “Mouse Plasma Metabolite (%)” value ([2]; 240 min) of the same molecule?
Answer: 55.2%

Question: What about the “Mouse Plasma Prodrug (%)” value ([2]; 0 min) of the same molecule?
Answer: 100%

Question: What about the “Mouse Plasma Prodrug (%)” value ([2]; 15 min) of the same molecule?
Answer: 77.3%

Question: What about the “Mouse Plasma Prodrug (%)” value ([2]; 30 min) of the same molecule?
Answer: 74.5%

Question: And the “Mouse Plasma Prodrug (%)” value ([2]; 60 min)?
Answer: 58.4%

Question: What about the “Mouse Plasma Prodrug (%)” value ([2]; 120 min) of the same molecule?
Answer: 43.1%

Question: And the “Mouse Plasma Prodrug (%)” value ([2]; 240 min)?
Answer: 31.7%

Question: And the “Human Plasma Metabolite (%)” value ([3]; 0 min)?
Answer: 0.08%

Question: What about the “Human Plasma Metabolite (%)” value ([3]; 15 min) of the same molecule?
Answer: 0.29%

Question: What about the “Human Plasma Metabolite (%)” value ([3]; 30 min) of the same molecule?
Answer: 0.40%

Question: What about the “Human Plasma Metabolite (%)” value ([3]; 60 min) of the same molecule?
Answer: 0.49%

Question: And the “Human Plasma Metabolite (%)” value ([3]; 120 min)?
Answer: 0.67%

Question: What about the “Human Plasma Metabolite (%)” value ([3]; 240 min) of the same molecule?
Answer: 0.61%

Question: And the “Human Plasma Prodrug (%)” value ([3]; 0 min)?
Answer: 100%

Question: What about the “Human Plasma Prodrug (%)” value ([3]; 15 min) of the same molecule?
Answer: >99%

Question: And the “Human Plasma Prodrug (%)” value ([3]; 30 min)?
Answer: >99%

Question: What about the “Human Plasma Prodrug (%)” value ([3]; 60 min) of the same molecule?
Answer: >99%

Question: What about the “Human Plasma Prodrug (%)” value ([3]; 120 min) of the same molecule?
Answer: >99%

Question: What about the “Human Plasma Prodrug (%)” value ([3]; 240 min) of the same molecule?
Answer: 78.2%

Question: What about the “brain concentrations quantifiable up to” value (in vivo; 321 after 321 IV 2 mg/kg) of the same molecule?
Answer: ≤ 0.5 h

Question: What about the “plasma concentrations quantifiable up to” value (in vivo; 321 after 321 IV 2 mg/kg) of the same molecule?
Answer: up to 2 h

Question: What about the “Brain concentrations (mean)” value (in vivo; [6]) of the same molecule?
Answer: 99.58 ng/g

Question: And the “Plasma concentrations (mean)” value (in vivo; [6])?
Answer: 304.66 ng/mL

Question: And the “Brain concentrations (mean)” value (in vivo; [7])?
Answer: 37.11 ng/g

Question: What about the “Plasma concentrations (mean)” value (in vivo; [7]) of the same molecule?
Answer: 104.69 ng/mL

Question: And the “Brain concentrations (mean)” value (in vivo; [8])?
Answer: 7.89 ng/g

Question: What about the “Plasma concentrations (mean)” value (in vivo; [8]) of the same molecule?
Answer: 26.16 ng/mL

Question: And the “Plasma concentrations (mean)” value (in vivo; 321 after 321 IV 2 mg/kg, 1 h)?
Answer: 8.57 ng/mL

Question: What about the “Plasma concentrations (mean)” value (in vivo; 321 after 321 IV 2 mg/kg, 2 h, average of two values) of the same molecule?
Answer: 1.38^d ng/mL

Question: And the AUClast (in vivo; 321 in brain after 321 IV 2 mg/kg)?
Answer: 27.57 ng·h/g

Question: And the half-life (in vivo; [9])?
Answer: 6.6 min

Question: What about the C0 (in vivo; [9]) of the same molecule?
Answer: 158 ng/mL

Question: And the clearance (in vivo; male, C57BL/6, mouse, in vivo, 321 in brain after 321 IV 2 mg/kg, flagged NR (not reportable, very high vs liver blood flow))?
Answer: 1150 mL/min/kg

Question: What about the Vd (in vivo; [9]) of the same molecule?
Answer: 10.3 L/kg

Question: What about the clearance (in vivo; [10]) of the same molecule?
Answer: 341 mL/min/kg

Question: And the half-life (in vivo; [10])?
Answer: 21.6 min

Question: And the C0 (in vivo; [10])?
Answer: 504 ng/mL

Question: What about the Vd (in vivo; [10]) of the same molecule?
Answer: 4.8 L/kg

Question: What about the Kp (in vivo; male, C57BL/6, mouse, in vivo, 321 after 321 IV 2 mg/kg, read-out: Brain-Kp) of the same molecule?
Answer: 0.28

Question: What about the AUC(0-t) (in vivo; [10]) of the same molecule?
Answer: 97.1 ng·h/mL

Question: And the half-life at 1 μM [4]?
Answer: 23 min

Question: What about the hepatocyte CLint at 1 μM [4] of the same molecule?
Answer: 59.4 µL/min/1e6 cells

Question: And the “Rat Plasma Metabolite (%)” value ([5]; 0 min)?
Answer: 23.9%

Question: What about the “Rat Plasma Metabolite (%)” value ([5]; 10 min) of the same molecule?
Answer: 53.7%

Question: And the “Rat Plasma Metabolite (%)” value ([5]; 30 min)?
Answer: 56.0%

Question: And the “Rat Plasma Metabolite (%)” value ([5]; 60 min)?
Answer: 59.1%

Question: And the “Rat Plasma Metabolite (%)” value ([5]; 120 min)?
Answer: 59.3%

Question: And the “Rat Plasma Metabolite (%)” value ([5]; 240 min)?
Answer: 56.7%

Question: And the “Rat Plasma Prodrug (%)” value ([5]; 0 min)?
Answer: 100.0%

Question: And the “Rat Plasma Prodrug (%)” value ([5]; 10 min)?
Answer: 74.0%

Question: What about the “Rat Plasma Prodrug (%)” value ([5]; 30 min) of the same molecule?
Answer: 69.8%

Question: What about the “Rat Plasma Prodrug (%)” value ([5]; 60 min) of the same molecule?
Answer: 69.2%

Question: What about the “Rat Plasma Prodrug (%)” value ([5]; 120 min) of the same molecule?
Answer: 68.4%

Question: And the “Rat Plasma Prodrug (%)” value ([5]; 240 min)?
Answer: 65.7%

— patent US20240408119A1, “DELIVERY OF THERAPEUTIC ALKALOID COMPOUNDS” (priority 2022, published 2024)
